Test results taken from ChEMBL document CHEMBL4840355, “Antitumor and toxicity study of mitochondria-targeted triptolide derivatives using triphenylphosphine (TPP+) as a carrier” (Bioorg Med Chem, 2021).
pIC50: −log10 of the molar value. Activity calls are given as the source filed them. The calls are words filed in the database; no cut-off is given here.

Key:
[1] = system: HepG2; assay: Cytotoxicity against human HepG2 cells assessed as inhibition of cell proliferation measured after 48 hrs by MTT assay; assay type: functional, cell-based; details: HepG2, 48 h
[2] = system: L02; assay: Cytotoxicity against human HL7702 cells assessed as inhibition of cell proliferation measured after 48 hrs by MTT assay; assay type: cell-based; details: L02, 48 h
[3] = system: PC-3; assay: Cytotoxicity against human PC-3 cells assessed as inhibition of cell proliferation measured after 48 hrs by MTT assay; assay type: functional, cell-based; details: PC-3, 48 h
[4] = system: HeLa; assay: Cytotoxicity against human HeLa cells assessed as inhibition of cell proliferation measured after 48 hrs by MTT assay; assay type: functional, cell-based
[5] = system: MCF7; assay: Cytotoxicity against human MCF7 cells assessed as inhibition of cell proliferation measured after 48 hrs by MTT assay; assay type: functional, cell-based; details: MCF7, 48 h
[6] = system: PANC-1; assay: Cytotoxicity against human PANC-1 cells assessed as inhibition of cell proliferation measured after 48 hrs by MTT assay; assay type: functional, cell-based; details: PANC-1, 48 h
[7] = Cytotoxicity against human HBE cells assessed as inhibition of cell proliferation measured after 48 hrs by MTT assay; assay type: cell-based
[8] = system: NCI-H1299; assay: Cytotoxicity against human NCI-H1299 cells assessed as inhibition of cell proliferation measured after 48 hrs by MTT assay; assay type: functional, cell-based; details: NCI-H1299, 48 h
[9] = system: NCI-H1975; assay: Cytotoxicity against human NCI-H1975 cells assessed as inhibition of cell proliferation measured after 48 hrs by MTT assay; assay type: functional, cell-based; details: NCI-H1975, 48 h
[10] = Cytotoxicity against human A549/DDP cells assessed as inhibition of cell proliferation measured after 48 hrs by MTT assay; assay type: functional, cell-based
[11] = system: HepG2; assay: Potency index, ratio of TP IC50 to test compound IC50 for cytotoxicity against human HepG2 cells; assay type: functional
[12] = system: PC-3; assay: Potency index, ratio of TP IC50 to test compound IC50 for cytotoxicity against human PC-3 cells; assay type: functional
[13] = system: HeLa; assay: Potency index, ratio of TP IC50 to test compound IC50 for cytotoxicity against human HeLa cells; assay type: functional
[14] = system: MCF7; assay: Potency index, ratio of TP IC50 to test compound IC50 for cytotoxicity against human MCF7 cells; assay type: functional
[15] = system: PANC-1; assay: Potency index, ratio of TP IC50 to test compound IC50 for cytotoxicity against human PANC-1 cells; assay type: functional
[16] = system: NCI-H1299; assay: Potency index, ratio of TP IC50 to test compound IC50 for cytotoxicity against human NCI-H1299 cells; assay type: functional
[17] = system: NCI-H1975; assay: Potency index, ratio of TP IC50 to test compound IC50 for cytotoxicity against human NCI-H1975 cells; assay type: functional
[18] = Potency index, ratio of TP IC50 to test compound IC50 for cytotoxicity against human A549/DDP cells; assay type: functional
[19] = system: HepG2; assay: Antitumor activity against human HepG2 cells xenografted in zebra fish AB assessed as tumor growth inhibition at 1 uM measured after 48 hrs by fluorescence microscopic analysis; assay type: functional, cell-based

Row | SMILES | pIC50 [1] | pIC50 [2] | pIC50 [3] | pIC50 [4] | pIC50 [5] | pIC50 [6] | pIC50 [7] | pIC50 [8] | pIC50 [9] | pIC50 [10] | Ratio IC50 [11] | Ratio IC50 [12] | Ratio IC50 [13] | Ratio IC50 [14] | Ratio IC50 [15] | Ratio IC50 [16] | Ratio IC50 [17] | Ratio IC50 [18] | Activity [19]
1 | CC(C)[C@]12O[C@H]1[C@@H]1O[C@]13[C@]1(O[C@H]1C[C@H]1C4=C(CC[C@@]13C)C(=O)OC4)[C@@H]2OC(=O)CCCCCCBr | 7.19 | 7.12 | 7.38 | 6.60 | 7.04 | 6.68 | 6.94 | 7.05 | 7.01 | < 5.00 |  |  |  |  |  |  |  |  | 
2 | CC(C)[C@]12O[C@H]1[C@@H]1O[C@]13[C@]1(O[C@H]1C[C@H]1C4=C(CC[C@@]13C)C(=O)OC4)[C@@H]2OC(=O)CCCCCCC[P+](c1ccccc1)(c1ccccc1)c1ccccc1 | 7.22 | 6.90 | 6.79 | 6.48 | 6.51 | 6.78 | 6.91 | 6.69 | 6.72 | < 5.00 |  |  |  |  |  |  |  |  | 
3 | CCCCCCCCCCC(=O)O[C@@H]1[C@@]2(C(C)C)O[C@H]2[C@@H]2O[C@]23[C@]12O[C@H]2C[C@H]1C2=C(CC[C@@]13C)C(=O)OC2 | 6.53 | 6.73 | 5.90 | 6.33 | 6.33 | 6.49 | 6.82 | 6.48 | 7.02 | < 5.00 |  |  |  |  |  |  |  |  | 
4 | CC(C)[C@]12O[C@H]1[C@@H]1O[C@]13[C@]1(O[C@H]1C[C@H]1C4=C(CC[C@@]13C)C(=O)OC4)[C@@H]2OC(=O)CCCC[P+](c1ccccc1)(c1ccccc1)c1ccccc1.[Br-] | 4.62 | 4.76 | 4.58 | 4.64 | 4.73 | 4.87 | 5.20 | 5.65 | 5.86 | < 5.00 | 100 | 100 | 100 | 100 | 100 | 100 | 100 | 100 | 
5 | CCCCCCCC(=O)O[C@@H]1[C@@]2(C(C)C)O[C@H]2[C@@H]2O[C@]23[C@]12O[C@H]2C[C@H]1C2=C(CC[C@@]13C)C(=O)OC2 | 6.95 | 7.20 | 6.77 | 6.35 | 6.26 | 6.86 | 6.85 | 6.71 | 6.82 | < 5.00 |  |  |  |  |  |  |  |  | 
6 | CCCCC(=O)O[C@@H]1[C@@]2(C(C)C)O[C@H]2[C@@H]2O[C@]23[C@]12O[C@H]2C[C@H]1C2=C(CC[C@@]13C)C(=O)OC2 | 6.31 | 6.50 | 6.01 | 6.09 | 5.77 | 6.85 | 6.49 | 6.30 | 6.28 | < 5.00 |  |  |  |  |  |  |  |  | 
7 | CC(C)[C@]12O[C@H]1[C@@H]1O[C@]13[C@]1(O[C@H]1C[C@H]1C4=C(CC[C@@]13C)C(=O)OC4)[C@@H]2OC(=O)CCCCCBr | 6.83 | 7.07 | 7.10 | 6.41 | 6.44 | 6.41 | 6.77 | 6.94 | 6.68 | < 5.00 |  |  |  |  |  |  |  |  | 
8 | CC(C)[C@]12O[C@H]1[C@@H]1O[C@]13[C@]1(O[C@H]1C[C@H]1C4=C(CC[C@@]13C)C(=O)OC4)[C@@H]2OC(=O)CCCCBr | 6.64 | 7.08 | 6.72 | 6.14 | 6.42 | 5.92 | 6.58 | 6.63 | 6.79 | < 5.00 |  |  |  |  |  |  |  |  | 
9 | CC(C)[C@]12O[C@H]1[C@@H]1O[C@]13[C@]1(O[C@H]1C[C@H]1C4=C(CC[C@@]13C)C(=O)OC4)[C@@H]2OC(=O)CCCCCCCBr | 6.86 | 7.06 | 6.79 | 6.58 | 6.52 | 6.86 | 6.88 | 7.05 | 7.44 | < 5.00 |  |  |  |  |  |  |  |  | 
10 | CCCCCC(=O)O[C@@H]1[C@@]2(C(C)C)O[C@H]2[C@@H]2O[C@]23[C@]12O[C@H]2C[C@H]1C2=C(CC[C@@]13C)C(=O)OC2 | 7.13 | 6.82 | 6.80 | 6.47 | 6.19 | 7.07 | 7.00 | 6.67 | 7.09 | < 5.00 |  |  |  |  |  |  |  |  | 
11 | COc1cccc2c1C(=O)c1c(O)c3c(c(O)c1C2=O)C[C@@](O)(C(=O)CO)C[C@@H]3O[C@H]1C[C@H](N)[C@H](O)[C@H](C)O1 [DOXORUBICIN] | 5.71 | 6.45 | 6.27 | 5.68 |  | 5.51 | 5.90 | 5.89 | 5.57 | 4.97 |  |  |  |  |  |  |  |  | Active
12 | CC(C)[C@]12O[C@H]1[C@@H]1O[C@]13[C@]1(O[C@H]1C[C@H]1C4=C(CC[C@@]13C)C(=O)OC4)[C@@H]2OC(=O)CCCCCC[P+](c1ccccc1)(c1ccccc1)c1ccccc1 | 6.87 | 6.50 | 6.84 | 6.57 | 6.50 | 6.62 | 6.87 | 6.62 | 6.84 | < 5.00 |  |  |  |  |  |  |  |  | 
13 | CCCCCCC(=O)O[C@@H]1[C@@]2(C(C)C)O[C@H]2[C@@H]2O[C@]23[C@]12O[C@H]2C[C@H]1C2=C(CC[C@@]13C)C(=O)OC2 | 7.28 | 7.38 | 6.72 | 6.62 | 6.67 | 6.77 | 6.92 | 6.87 | 7.09 | < 5.00 |  |  |  |  |  |  |  |  | 
14 | CC(C)[C@]12O[C@H]1[C@@H]1O[C@]13[C@]1(O[C@H]1C[C@H]1C4=C(CC[C@@]13C)C(=O)OC4)[C@@H]2OC(=O)CCCCCCCCCCBr | 6.20 | 6.64 | 6.09 | 5.96 | 6.37 | 6.44 | 6.32 | 6.25 | 6.42 | < 5.00 |  |  |  |  |  |  |  |  | 
15 | CC(C)[C@]12O[C@H]1[C@@H]1O[C@]13[C@]1(O[C@H]1C[C@H]1C4=C(CC[C@@]13C)C(=O)OC4)[C@@H]2OC(=O)CCCCCCCCCC[P+](c1ccccc1)(c1ccccc1)c1ccccc1 | 6.45 | 6.38 | 6.83 | 6.21 | 6.72 | 6.73 | 6.67 | 6.42 | 6.58 | 5.99 |  |  |  |  |  |  |  |  | 
